Literature values in patent US20100003344A1, “Cosmetic Skincare Method Employing Mechanical Stresses” (L'OREAL, priority 2005, published 2010).
Where two headings read alike, the source gives them in different places. Ends that are not written are not given here.

How the values were obtained:
β1 integrins [1] = settings: applied to the skin ex vivo
beta1 integrins = settings: stated as known
β1 integrins [2] = settings: cells in culture
β1 integrins [3] = test system: β1 integrins
[4] = test system: α2, α3, α6, αv and β1 integrins; settings: keratinocytes in culture or in reconstructed skins

Row | Substance | number of mechanoreceptors (beta1 integrins) on the surface of the keratinocytes (beta1 integrins) | expression of integrins, in particular the α2, α3, α6, αv and β1 integrins [4] | also measured
1 | GPQGPQ [COLLAXYL] |  |  | expression of β1 integrins (β1 integrins [1]): stimulates the expression of β1 integrins
2 | KLDAPT [VINCI 02] | increase the number of mechanoreceptors |  | expression of β1 integrins (β1 integrins [2]): stimulates the expression of β1 integrins
3 | RDFTKATNIRLRFLR [VINCI 01] |  |  | expression of β1 integrins (β1 integrins [3]): stimulates the expression of β1 integrins
4 | copper gluconate |  | capable of increasing the expression of integrins | 
5 | manganese gluconate | increase the number of mechanoreceptors | capable of increasing the expression of integrins | 
6 | zinc gluconate |  | capable of increasing the expression of integrins | 
